According to article PMC3927586, “Protein kinase C-delta inactivation inhibits the proliferation and survival of cancer stem cells in culture and in vivo” (BMC Cancer, 2014):
Read-outs that look alike come from different tables or passages of the source.

Assays:
MCF7 cells = assay: Cell proliferation (MTT) of adherent MCF7 cells; assay type: cell-based, human; conditions: for concentration at which effect on cell number reached significance: MCF7, MTT, 24 hr, p ≤ 0.02; for concentration required to repress growth by more than 80%: MCF7 adherent population, MTT
Protocol: (§1) Cell proliferation was assessed using an MTT [3-(4,5-dimethylthiazol-2-yl)-2,5-diphenyltetrazolium bromide] assay (Roche, Mannheim, Germany). The number of viable cells growing in a single well on a 96-well microtiter plate was estimated by adding 10 μl of MTT solution (5 mg/ml in phosphate-buffered saline [PBS]). After 4 h of incubation at 37°C, the stain was diluted with 100 μl of dimethyl sulfoxide. The optical densities were quantified at a test wavelength of 570 nm and a reference wavelength of 690 nm on a multiwell spectrophotometer. In some assays, MTS was used as substrate (Promega, Madison, WI), and the absorbance of the product was monitored at 490 nm. Cell enumeration was carried out using a hemocytometer, and viable cells identified by trypan blue exclusion.
Figure 4 Effects of PKCδ inhibitors on human tumor cell spheroid formation. (A) Hs578T and MCF7 were plated under adherent or non-adherent conditions. Tumor spheroids and adherent cells were collected at 96 hr, stained for CD24 and CD44, and analyzed by flow cytometry. (B) Hs578T, MCF7, breast cancer stem cells (BCSC) and pancreatic cancer stem cells (PCSC) were plated in tumor spheroid media, in the presence of rottlerin, BJE6-106, or DMSO (Control). Tumor spheroids were enumerated at 96 hr, and normalized to the number of spheroids in the control cultures (assigned an arbitrary value of 100%). p values for comparison between vehicle and rottlerin or BJE6-106 effects were significant (p≤0.001). Photographs are of representative areas of the culture plates. (C) MCF7 cells were exposed BJE6-106 or to rottlerin at the indicated concentrations. The corresponding equivalent volume of solvent (DMSO) was used as a vehicle control (Vehicle). After 24, 48 and 72 hr of exposure, cell mass was evaluated by MTT assay. Control values were normalized to 100%. p values for comparison between vehicle and rottlerin effects on cell number at 24 hr reached significance at 5 μM, and for BJE6-106 at 0.5 μM (p ≤ 0.02), and were significant for all concentrations tested at 48 and 72 hr time points. (D) Hs578T cells were exposed to vehicle or BJE6-106 (1 μM) for 6, 12, 24, 48 or 96 hr. Viable cells were enumerated and re-plated in media without BJE6-206, and spheroid numbers were quantitated 96 hr later. p values for comparison between vehicle and BJE6-106 effects on spheroid number were significant after 6 hr of exposure (p≤0.02), and remained significant at all time points thereafter. Error bars represent SEM.

recombinant PKCα = target: T1, recombinant PKCα (Homo sapiens, UniProt P17252); assay: PKC kinase activity assay (Z-lyte), PKCα; assay type: biochemical
T1 construct: purchased Invitrogen
Protocol: Assays were carried out using recombinant PKCδ or PKCα, (Invitrogen) and the Z-lyte Kinase Assays (Invitrogen) with a “PKC-kinase-specific” peptide substrate. FRET interactions produce a change in fluorescence (ex455/ex520) upon phosphorylation. The kit was used according to the manufacturer’s instructions.

MCF 10A cells = assay: Cell proliferation (MTT) of non-transformed breast epithelial cells; assay type: cell-based, human; conditions: for concentration at which effect on MCF 10A cell number reached significance: 48 hr, p < 0.05; for IC50: Homo sapiens, MCF-10A, 72 hr, read-out: IC50 for the parental MCF 10A cells
Protocol: as §1
Figure 5 Effects of PKCδ inhibitors on growth and spheroid formation in non-transformed and transformed human breast epithelial cells. MCF 10A cells and cells from the derived tumorigenic line MCF 10C (also called M3), were grown to 80% confluence in 96-well plates and then exposed to rottlerin at concentrations ranging from 1 to 20 μM (A) or to BJE6-106 at concentrations ranging from 0.1 to 20 μM (B). The corresponding equivalent volume of solvent (DMSO) was used as a vehicle control (Vehicle). After 24, 48 and 72 hr of exposure, cell mass was evaluated by MTT assay. Control (vehicle) values were normalized to 100%. Error bars represent SEM. p values for comparison between vehicle and PKCδ inhibitors on MCF 10A cell number only reached significance (p < 0.05) at 48 hr at 20 μM for rottlerin, and at 1 μM for BJE6-106. In contrast, significant effects of the inhibitors on the MCF 10C cells were observed as early as 24 hr for rottlerin (at 5 μM) and for BJE6-106 (at 0.1 μM). (C) MCF 10A and MCF 10C cells were plated at 10,000 cells per well in tumor spheroid media, and spheroid formation was assessed at days 10 and 21. Representative photographs are shown. (D) MCF 10C cells were plated at 10,000 cells per well in tumor spheroid media, in the presence of rottlerin (5 μM), or BJE6-106 (1 μM or 5 μM), or DMSO vehicle (Control). Tumor spheroids were enumerated at 10 days. Representative photographs are shown. (E) Spheroid numbers were normalized to the number of spheroids in the control cultures (assigned an arbitrary value of 100%) and plotted. Error bars represent SEM. p values for comparison between vehicle and rottlerin or BJE6-106 effects on spheroid number were significant (p < 0.001).

MCF7 spheroids = assay: Tumor spheroid formation, MCF7; assay type: cell-based; conditions: Homo sapiens, 96 hr, read-out: inhibition of growth of MCF7 spheroids
Protocol: Tumor self-renewing and anchorage-independent spheroids were obtained by culturing breast cancer cells MCF7, Hs587T and MDA231; melanoma cells SBcl2 and FM6; human breast cancer stem cells and pancreatic cancer stem cells in stem cell-selective conditions according to the manufacturer’s instructions (StemCell Technologies, Tukwila, WA). Briefly, cancer and cancer stem cells were propagated in 6-well ultra-low adherent plates (Corning) in Complete MammoCult Medium (Human) by adding 50 mL of MammoCult Proliferation Supplements to 450 mL of MammoCult Basal Medium (StemCell Technologies). The following were added to obtain Complete MammoCult Medium: 4 ug/mL Heparin (StemCell Technologies), 0.48 μg/mL hydrocortisone (StemCell Technologies), 200 U penicillin/ml; and 200 μg streptomycin/ml (Invitrogen).
Figure 4 Effects of PKCδ inhibitors on human tumor cell spheroid formation. […] Tumor spheroids and adherent cells were collected at 96 hr, stained for CD24 and CD44, and analyzed by flow cytometry. […] After 24, 48 and 72 hr of exposure, cell mass was evaluated by MTT assay. […] Viable cells were enumerated and re-plated in media without BJE6-206, and spheroid numbers were quantitated 96 hr later. p values for comparison between vehicle and BJE6-106 effects on spheroid number were significant after 6 hr of exposure (p≤0.02), and remained significant at all time points thereafter. […]

FN5 = assay: Tumor spheroid growth, FN5 melanoma; assay type: cell-based, human; conditions: p < 0.001

SMILES | concentration at which effect on cell number reached significance (MCF7 cells) [µM] | concentration required to repress growth by more than 80% (MCF7 cells) [µM] | IC50 (recombinant PKCα) [µM] | concentration at which effect on MCF 10A cell number reached significance (MCF 10A cells) [µM] | IC50 (MCF 10A cells) [µM] | inhibition at 10 µM (MCF7 spheroids; rottlerin at 10 μM) [%] | inhibition at 10 µM (FN5; Homo sapiens, rottlerin at 10 μM) [%] | IC50 (recombinant PKCα; in vitro kinase assay, read-out: PKCα IC50) [µM] | inhibition at 1 µM (MCF7 spheroids; BJE6-106 at 1 μM) [%] | inhibition of tumor spheroid growth, FN5 (FN5; BJE6-106 at 0.5-1.0 μM) [%]
CC(=O)c1c(O)c(C)c(O)c(Cc2c(O)c3c(c(C(=O)/C=C/c4ccccc4)c2O)OC(C)(C)C=C3)c1O [rottlerin, Rottlerin, reference compound] | 5 | > 10 | 75 | 20 | > 20 | > 90 | > 99.5 |  |  | 
CC1(C)C=Cc2cc(CCn3c4ccccc4c4ccccc43)cc(C=O)c2O1 [BJE6-106, 6-(2-(9H-carbazol-9-yl)ethyl)-2,2-dimethyl-2H-chromene-8-carbaldehyde] | 0.5 | > 1 |  | 1 | > 20 |  |  | 50 | > 90 | > 99.5
